Assay results taken from the supplement of paper PMC6335503.
± gives the standard deviation of the averaged measurements.

Tests used:
Assay in all cases: cell viability, percent of DMSO control (CellTiter-Glo); higher = more viable cells
Settings in all cases: 72 h
[1] = test system: DFTD cell line T3 (06/0368)
Method: (§1)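 Eight-point dose titration of 41 screen hits in triplicate wells on four Tasmanian devil DFTD tumour cell lines (T1-T4) and devil fibroblasts, 384-well plates. Viability was read by CellTiter-Glo (ATP) after 72 h at 37 °C. Percent of control per plate: DMSO wells = 100%, positive-control wells = 0%.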

[2] = test system: DFTD cell line T1 (06/2887)
Method: as §1

[3] = test system: DFTD cell line T4 (07/0192)
Method: as §1

[4] = test system: DFTD cell line T2 (05/2569)
Method: as §1

## COc1cccc2c1C(=O)c1c(O)c3c(c(O)c1C2=O)C[C@@](O)(C(=O)CO)C[C@@H]3O[C@H]1C[C@H](N)[C@@H](O)[C@H](C)O1.Cl
[1]; 0.00617 µM
  cell viability: 124 ± 11%
[1]; 0.0185 µM
  cell viability: 110 ± 44%
[1]; 0.0556 µM
  cell viability: 96.2 ± 12%
[1]; 0.166667 µM
  cell viability: 81.9 ± 18%
[1]; 0.5 µM
  cell viability: 63.8 ± 6.6%
[1]; 1.5 µM
  cell viability: 19.3 ± 3.4%
[1]; 4.5 µM
  cell viability: 5.78 ± 4.9%
[1]; 13.5 µM
  cell viability: -4.2 ± 4.2%
[2]; 0.00617 µM
  cell viability: 127 ± 20%
[2]; 0.0185 µM
  cell viability: 96.8 ± 35%
[2]; 0.0556 µM
  cell viability: 94.5 ± 5%
[2]; 0.166667 µM
  cell viability: 66.7 ± 14%
[2]; 0.5 µM
  cell viability: 60.6 ± 6.7%
[2]; 1.5 µM
  cell viability: -2.32 ± 3.8%
[2]; 4.5 µM
  cell viability: -3.85 ± 4.9%
[2]; 13.5 µM
  cell viability: -11.8 ± 0.8%
[3]; 0.00617 µM
  cell viability: 118 ± 30%
[3]; 0.0185 µM
  cell viability: 97.7 ± 28%
[3]; 0.0556 µM
  cell viability: 89.8 ± 12%
[3]; 0.166667 µM
  cell viability: 67.5 ± 13%
[3]; 0.5 µM
  cell viability: 57.2 ± 10%
[3]; 1.5 µM
  cell viability: -4.01 ± 4.5%
[3]; 4.5 µM
  cell viability: -5.27 ± 1.6%
[3]; 13.5 µM
  cell viability: -4.94 ± 4.3%
[4]; 0.00617 µM
  cell viability: 116 ± 3.2%
[4]; 0.0185 µM
  cell viability: 105 ± 38%
[4]; 0.0556 µM
  cell viability: 107 ± 8.6%
[4]; 0.166667 µM
  cell viability: 79.4 ± 6.3%
[4]; 0.5 µM
  cell viability: 68.9 ± 3.2%
[4]; 1.5 µM
  cell viability: 22.8 ± 5%
[4]; 4.5 µM
  cell viability: -4.77 ± 4%
[4]; 13.5 µM
  cell viability: -10.2 ± 3.1%

## COc1cccc2c1C(=O)c1c(O)c3c(c(O)c1C2=O)C[C@@](O)(C(=O)CO)C[C@@H]3O[C@H]1C[C@H](N)[C@H](O)[C@H](C)O1.Cl
[1]; 0.00617 µM
  cell viability: 101 ± 18%
[1]; 0.0185 µM
  cell viability: 102 ± 5.6%
[1]; 0.0556 µM
  cell viability: 97.9 ± 17%
[1]; 0.166667 µM
  cell viability: 95.8 ± 19%
[1]; 0.5 µM
  cell viability: 60.3 ± 11%
[1]; 1.5 µM
  cell viability: 45 ± 4.4%
[1]; 4.5 µM
  cell viability: 1.01 ± 0.94%
[1]; 13.5 µM
  cell viability: 2.64 ± 8.3%
[2]; 0.00617 µM
  cell viability: 106 ± 19%
[2]; 0.0185 µM
  cell viability: 112 ± 28%
[2]; 0.0556 µM
  cell viability: 94.2 ± 8.7%
[2]; 0.166667 µM
  cell viability: 95.5 ± 18%
[2]; 0.5 µM
  cell viability: 61.2 ± 8.2%
[2]; 1.5 µM
  cell viability: 32.2 ± 2.5%
[2]; 4.5 µM
  cell viability: 1.1 ± 6.5%
[2]; 13.5 µM
  cell viability: -3.65 ± 5%
[3]; 0.00617 µM
  cell viability: 110 ± 16%
[3]; 0.0185 µM
  cell viability: 98 ± 4.9%
[3]; 0.0556 µM
  cell viability: 89.9 ± 30%
[3]; 0.166667 µM
  cell viability: 91.9 ± 4.3%
[3]; 0.5 µM
  cell viability: 43.8 ± 15%
[3]; 1.5 µM
  cell viability: 24.2 ± 7%
[3]; 4.5 µM
  cell viability: -1.02 ± 1.8%
[3]; 13.5 µM
  cell viability: 1.84 ± 5.4%
[4]; 0.00617 µM
  cell viability: 118 ± 33%
[4]; 0.0185 µM
  cell viability: 107 ± 14%
[4]; 0.0556 µM
  cell viability: 90.9 ± 19%
[4]; 0.166667 µM
  cell viability: 97.9 ± 18%
[4]; 0.5 µM
  cell viability: 60.3 ± 14%
[4]; 1.5 µM
  cell viability: 33.7 ± 8.7%
[4]; 4.5 µM
  cell viability: -0.292 ± 4.4%
[4]; 13.5 µM
  cell viability: -2.07 ± 4.8%
